From patent US20210154281A1, “CELL-BASED CANCER VACCINES AND CANCER THERAPIES” (Massachusetts Institute of Technology, priority 2019, published 2021)
Read-outs that look alike come from different tables or passages of the source.

Legend:
Assay type in all cases: cell-based, mouse
[1] = test system: B16F10 melanoma tumor cell line; assay: Cell death by AnnexinV/DAPI staining 48 hours after drug treatment; conditions: for cell death by DAPI and Annexin V staining: at the concentrations used; for cytotoxicity at 0.05 µM / viability at 0.05 µM: 50 nM; for cytotoxicity at 0.25 µM / viability at 0.25 µM: 250 nM
Method: For assessment of cell death, floating and attached cells were harvested after 48 hours of treatment with the indicated chemotherapeutic drugs. Attached cells were detached using 5 mM EDTA in PBS. The recovered cells were centrifuged at 250×g for 5 minutes, washed once in PBS containing 0.9 mM Ca2+ and 0.5 mM Mg2+ and then stained with AnnV-FITC for 15 minutes in Annexin binding buffer at room temperature according to the manufacturer's protocol (Biolegend). Cells were co-stained with DAPI at a final concentration of 1 μg/ml for 2 minutes in Annexin binding buffer, brought to a final volume of 500 ul using PBS containing 0.9 mM Ca2^+ and 0.5 mM Mg2^+ and analyzed by flow cytometry.
To identify how DNA-damaging chemotherapy could be optimally used to enhance anti-tumor immune function, cytotoxicity assays were performed using the B16F10 melanoma tumor cell line expressing ovalbumin (B16-Ova). Cells were treated with clinically used chemotherapeutic agents followed by assaying for cell death by DAPI and Annexin V staining 48 hours later.

[2] = test system: B16F10 melanoma tumor cell line; assay: Cell viability (survival) assay with CellTiter-Glo, 48 hours; conditions: for Cell viability (%) MEAN: 48 hours, normalized to DMSO-treated control cells; for growth arrest: at the concentrations used
Method: (§1) For assays of survival, 15,000 cells were plated per well in a 96-well plate in 100 μl media with 5 replicates per condition. Wells along the four edges of the plate were not used. Following cell attachment, the indicated drugs were added in an equal volume of media, and incubated for an additional 48 hours. The media was then removed and replaced with 100 ul of fresh media at room temperature. Following a 30 minute incubation at room temperature, 50 μl of CellTiter-Glo reagent was added, followed by 2 minutes of gentle mixing. The plate was incubated at room temperature for an additional 10 minutes. 100 μl of supernatant was transferred to a 96-well white opaque plate and luminescence was read on a Tecan microplate reader. Values were normalized to those of DMSO-treated control cells.

B16-Ova cells = assay: In vitro cross presentation assay: drug-treated B16-Ova cells, BMDC and OT-1 CD8+ T-cells, IFN-γ+ T-cells by flow cytometry; set-up: reduction of the percentage of IFNg+ T-cells by siRNA knockdown of calreticulin / reduction of T-cell IFN-γ responses / frequency of IFN-γ+ T-cells: concentration or dose not given beside the values
Method: B16-Ova or MC-38 Ova cells were treated with various doses of chemotherapeutic drugs for 24 h followed by extensive washing in IMDM (10% FBS, P/S). Subsequently 1×10^6 treated cells were co-cultured with 2.5×10^5 BMDC per well of a 24-well plate for each condition tested. After 24 hours of co-culture, supernatants were removed from each well and the BMDC washed 2-3 times in T-cell media (RPMI containing 10% FBS, 20 mM HEPES, 1 mM sodium pyruvate, 55 uM b-mercaptoethanol, 2 mM L-glutamine, nonessential amino acids and antibiotics). CD8+OT-I T-cells isolated from spleens of OT-I mice were then co-cultured with the BMDC at 125,000 T-cells per well to achieve an effector to target ratio of 0.5. Where indicated, BMDC and/or T-cells were also exposed to chemotherapy drugs. After a 12-15 h incubation, IFN-g producing T-cells were identified and quantified by intra-cellular cytokine staining and flow cytometry using a BD LSR II or Fortessa flow cytometer. Cells were first gated for CD3 expression, then re-gated for CD8 and IFNg expression.
An experimental system was developed to assess dendritic cell-mediated T-cell priming using the B16-Ova cells, in combination with primary bone-marrow derived dendritic cells (BMDC) and OT-I CD8+ T-cells expressing a TCR transgene that specifically recognizes the Ova-derived peptide […] (SEQ ID NO:1) in the context of H2-Kb (OT-1) (Clarke, et al., Immunol Cell Biol., 78(2):110-7 (2000); Hogquist, et al., Cell, 76(1):17-27 (1994)). […] The treated B16-Ova cells/BMDC co-culture was then incubated with purified CD8+ T-cells obtained from the spleens of OT-1 mice, and the appearance of IFNg+CD8 T-cells was measured 12-15 hours later by intracellular staining and subsequent quantification using flow cytometry.

[3] = Cell viability (survival) assay with CellTiter-Glo, 48 hours; conditions: mouse, 48 hours, normalized to DMSO-treated control cells; for viability at 48 h, 0.05 uM: .05 uM
Method: as §1

[4] = Mus musculus, B16-F10, 48 hours, read-out: AnnV+DAPI+ (%) Mean
[5] = Mus musculus, B16-F10, 48 hours, read-out: AnnV+DAPI− (%) Mean
[6] = Mus musculus, B16-F10, 48 hours, read-out: AnnV−DAPI+ (%) Mean
[7] = Mus musculus, B16-F10, 48 hours, read-out: AnnV−DAPI− (%) Mean
[8] = co-treatment of B16-Ova cells with etoposide
[9] = co-treatment of B16-Ova cells with mitoxantrone
[10] = Mus musculus, B16-F10, 48 h, read-out: AnnV+DAPI+ (%) Mean
[11] = Mus musculus, B16-F10, 48 h, read-out: AnnV+DAPI− (%) Mean
[12] = Mus musculus, B16-F10, 48 h, read-out: AnnV−DAPI+ (%) Mean
[13] = Mus musculus, B16-F10, 48 h, read-out: AnnV−DAPI− (%) Mean

In the case of `O=C1[O][Pt]2([NH][C@@H]3CCCC[C@H]3[NH]2)[O]C1=O` [Oxal, oxaliplatin], the “AnnV+DAPI+ (%) Mean” value ([1]; 10 uM, 48 hours) is reported as 1.73%, the “AnnV+DAPI− (%) Mean” value ([1]; 10 uM, 48 hours) is reported as 2.65% and the “AnnV−DAPI+ (%) Mean” value ([1]; 10 uM, 48 hours) is reported as 1.11%. The “AnnV−DAPI− (%) Mean” value ([1]; 10 uM, 48 hours) was 94.50%, the “AnnV+DAPI+ (%) Mean” value ([1]; 50 uM, 48 hours) was 4.25% and the “AnnV+DAPI− (%) Mean” value ([1]; 50 uM, 48 hours) was 4.23%. For the same compound, the “AnnV−DAPI+ (%) Mean” value ([1]; 50 uM, 48 hours) was 1.09%, the “AnnV−DAPI− (%) Mean” value ([1]; 50 uM, 48 hours) was 90.45% and the “cell death by DAPI and Annexin V staining” value (from here on “cell death”) ([1]; 48 hours) was “did not induce substantial amounts of cell death”. The “Cell viability (%) MEAN” value ([2]; 10 uM) was 45.09%, the “Cell viability (%) MEAN” value ([2]; 50 uM) was 44.21% and the growth arrest [2] was “caused some degree of growth arrest”.

For `CN1C(=O)C(Cc2c[nH]c3ccccc23)NC1=S` (stereo not shown) [necrostatin-1], the “ability of drug-treated B16-Ova cells co-cultured with BMDCs to induce IFN-g in T-cells” value (B16-Ova cells; co-treatment with etoposide or mitoxantrone) was “inhibited the ability of both etoposide and mitoxantrone-treated B16-Ova cells”.

With `CC[C@@]1(O)C(=O)OCc2c1cc1n(c2=O)Cc2cc3ccccc3nc2-1` [CPT, camptothecin] the “cell death” value ([1]; 48 hours) was “did not induce substantial amounts of cell death”, the cytotoxicity at 0.05 µM [1, 4] was 7.03% and the cytotoxicity at 0.05 µM [1, 5] was 1.26%. For the same compound, the cytotoxicity at 0.05 µM [1, 6] was 1.35%, the viability at 0.05 µM [1, 7] was 90.4% and the cytotoxicity at 0.25 µM [1, 4] was 4.71%. The cytotoxicity at 0.25 µM [1, 5] was 4.35%, the cytotoxicity at 0.25 µM [1, 6] was 0.58% and the viability at 0.25 µM [1, 7] was 90.3%. The viability at 48 h, 0.25 µM ([3]; B16F10 melanoma tumor cells) was 77.6% and the viability at 48 h, 0.05 uM ([3]; B16F10 melanoma tumor cells) was 91.1%.

With `Oc1ccc(-c2nc(-c3ccncc3)c(-c3ccc(F)cc3)[nH]2)cc1` [SB202190] the “reduction of T-cell IFN-γ responses / frequency of IFN-γ+ T-cells” value (B16-Ova cells; [8]) was roughly 22% and the “reduction of T-cell IFN-γ responses / frequency of IFN-γ+ T-cells” value (B16-Ova cells; [9]) was “nearly abrogated”.

With Z-VAD the “reduction of T-cell IFN-γ responses / frequency of IFN-γ+ T-cells” value (B16-Ova cells; [8]) was roughly 12% and the “reduction of T-cell IFN-γ responses / frequency of IFN-γ+ T-cells” value (B16-Ova cells; [9]) was “no effect”.

In the case of `Cc1ccc(-c2ccc3c(ccc4sc5c(c43)NC[C@@H](C)NC5=O)n2)cn1` [PF-3644022], the “BMDC-mediated T-cell priming” value (B16-Ova cells; [8]) is reported as “enhances BMDC-mediated T-cell priming”.

With `N.N.[Cl][Pt][Cl]` [Cis, cisplatin] the “AnnV+DAPI+ (%) Mean” value ([1]; 10 uM, 48 hours) was 2.76%, the “AnnV+DAPI− (%) Mean” value ([1]; 10 uM, 48 hours) was 3.68% and the “AnnV−DAPI+ (%) Mean” value ([1]; 10 uM, 48 hours) was 0.32%. For the same compound, the “AnnV−DAPI− (%) Mean” value ([1]; 10 uM, 48 hours) was 93.25%, the “AnnV+DAPI+ (%) Mean” value ([1]; 50 uM, 48 hours) was 18.75% and the “AnnV+DAPI− (%) Mean” value ([1]; 50 uM, 48 hours) was 46.80%. The “AnnV−DAPI+ (%) Mean” value ([1]; 50 uM, 48 hours) was 2.96%, the “AnnV−DAPI− (%) Mean” value ([1]; 50 uM, 48 hours) was 31.55% and the “cell death” value ([1]; 48 hours) was “caused varying extents of apoptotic and non-apoptotic cell death”.

In the case of `O=c1[nH]cc(F)c(=O)[nH]1` [5-FU, 5-fluorouracil], the “cell death” value ([1]; 48 hours) is reported as “caused varying extents of apoptotic and non-apoptotic cell death”, the cytotoxicity at 10 µM ([1]; Mus musculus, B16-F10, 10 uM, 48 hours, read-out: AnnV+DAPI+ (%) Mean) is reported as 5.29% and the cytotoxicity at 10 µM ([1]; Mus musculus, B16-F10, 10 uM, 48 hours, read-out: AnnV+DAPI− (%) Mean) is reported as 9.5%. It also gave a cytotoxicity at 10 µM ([1]; Mus musculus, B16-F10, 10 uM, 48 hours, read-out: AnnV−DAPI+ (%) Mean) of 1.23%, a viability at 10 µM ([1]; Mus musculus, B16-F10, 10 uM, 48 hours, read-out: AnnV−DAPI− (%) Mean) of 84% and a cytotoxicity at 50 µM ([1]; Mus musculus, B16-F10, 50 uM, 48 hours, read-out: AnnV+DAPI+ (%) Mean) of 6.78%. It also gave a cytotoxicity at 50 µM ([1]; Mus musculus, B16-F10, 50 uM, 48 hours, read-out: AnnV+DAPI− (%) Mean) of 28.1%, a cytotoxicity at 50 µM ([1]; Mus musculus, B16-F10, 50 uM, 48 hours, read-out: AnnV−DAPI+ (%) Mean) of 1.33% and a viability at 50 µM ([1]; Mus musculus, B16-F10, 50 uM, 48 hours, read-out: AnnV−DAPI− (%) Mean) of 63.9%. The viability at 48 h, 10 µM ([3]; B16F10 melanoma tumor cells, 10 uM) was 49% and the viability at 48 h, 50 µM ([3]; B16F10 melanoma tumor cells, 50 uM) was 42.8%.

With `CCc1c2c(nc3ccc(OC(=O)N4CCC(N5CCCCC5)CC4)cc13)-c1cc3c(c(=O)n1C2)COC(=O)[C@]3(O)CC` [Iri, irinotecan] the cytotoxicity at 0.05 µM [1, 4] was 3.79%, the cytotoxicity at 0.05 µM [1, 5] was 0.36% and the cytotoxicity at 0.05 µM [1, 6] was 1.87%. For the same compound, the viability at 0.05 µM [1, 7] was 94%, the cytotoxicity at 0.25 µM [1, 4] was 5.06% and the cytotoxicity at 0.25 µM [1, 5] was 0.54%. It also gave a cytotoxicity at 0.25 µM [1, 6] of 1.63%, a viability at 0.25 µM [1, 7] of 92.8% and a cytotoxicity at 1 µM ([1]; Mus musculus, B16-F10, 1 uM, 48 hours, read-out: AnnV+DAPI+ (%) Mean) of 6.38%. The cytotoxicity at 1 µM ([1]; Mus musculus, B16-F10, 1 uM, 48 hours, read-out: AnnV+DAPI− (%) Mean) was 1.74%, the cytotoxicity at 1 µM ([1]; Mus musculus, B16-F10, 1 uM, 48 hours, read-out: AnnV−DAPI+ (%) Mean) was 0.89% and the viability at 1 µM ([1]; Mus musculus, B16-F10, 1 uM, 48 hours, read-out: AnnV−DAPI− (%) Mean) was 91%. For the same compound, the viability at 48 h, 0.25 µM ([3]; B16F10 melanoma tumor cells) was 99.8%, the viability at 48 h, 1 µM ([3]; B16F10 melanoma tumor cells, 1 uM) was 97.9% and the viability at 48 h, 0.05 uM ([3]; B16F10 melanoma tumor cells) was 96.8%. The growth arrest [2] was “caused some degree of growth arrest”.

For `O=P1(N(CCCl)CCCl)NCCCO1` (stereo not shown) [CPM, cyclophosphamide], the “cell death” value ([1]; 48 hours) was “did not induce substantial amounts of cell death”, the cytotoxicity at 40 µM [1, 10] was 7.7% and the cytotoxicity at 200 µM [1, 10] was 11%. The cytotoxicity at 40 µM [1, 11] was 1.44%, the cytotoxicity at 200 µM [1, 11] was 1.09% and the cytotoxicity at 40 µM [1, 12] was 0.82%. The cytotoxicity at 200 µM [1, 12] was 0.88%, the viability at 40 µM [1, 13] was 90% and the viability at 200 µM [1, 13] was 87%. The viability at 48 h, 40 µM ([3]; 40 uM) was 98.5% and the viability at 48 h, 200 µM ([3]; 200 uM) was 101%.

With `CC(C)(C)c1ccc(S(=O)(=O)/C=C/C#N)cc1` [Bay11-7085] the “BMDC-mediated T-cell priming” value (B16-Ova cells; [8]) was “inhibits BMDC-mediated T-cell priming”, the “reduction of T-cell IFN-γ responses / frequency of IFN-γ+ T-cells” value (B16-Ova cells; [8]) was greater than 90% and the “reduction of T-cell IFN-γ responses / frequency of IFN-γ+ T-cells” value (B16-Ova cells; [9]) was greater than 50%.
